# Experimental data from ChEMBL document CHEMBL5653631, “A Potent and Selective ULK1 Inhibitor Suppresses Autophagy and Sensitizes Cancer Cells to Nutrient Stress” (iScience, 2018).
# What was measured:
# [1] = target: T1, Serine/threonine-protein kinase TAO1 (Homo sapiens) (UniProt Q7L7X3); test: Inhibition of human recombinant TAO1 at 500 nM related to control ULK1
# T1 sequence (whole entry): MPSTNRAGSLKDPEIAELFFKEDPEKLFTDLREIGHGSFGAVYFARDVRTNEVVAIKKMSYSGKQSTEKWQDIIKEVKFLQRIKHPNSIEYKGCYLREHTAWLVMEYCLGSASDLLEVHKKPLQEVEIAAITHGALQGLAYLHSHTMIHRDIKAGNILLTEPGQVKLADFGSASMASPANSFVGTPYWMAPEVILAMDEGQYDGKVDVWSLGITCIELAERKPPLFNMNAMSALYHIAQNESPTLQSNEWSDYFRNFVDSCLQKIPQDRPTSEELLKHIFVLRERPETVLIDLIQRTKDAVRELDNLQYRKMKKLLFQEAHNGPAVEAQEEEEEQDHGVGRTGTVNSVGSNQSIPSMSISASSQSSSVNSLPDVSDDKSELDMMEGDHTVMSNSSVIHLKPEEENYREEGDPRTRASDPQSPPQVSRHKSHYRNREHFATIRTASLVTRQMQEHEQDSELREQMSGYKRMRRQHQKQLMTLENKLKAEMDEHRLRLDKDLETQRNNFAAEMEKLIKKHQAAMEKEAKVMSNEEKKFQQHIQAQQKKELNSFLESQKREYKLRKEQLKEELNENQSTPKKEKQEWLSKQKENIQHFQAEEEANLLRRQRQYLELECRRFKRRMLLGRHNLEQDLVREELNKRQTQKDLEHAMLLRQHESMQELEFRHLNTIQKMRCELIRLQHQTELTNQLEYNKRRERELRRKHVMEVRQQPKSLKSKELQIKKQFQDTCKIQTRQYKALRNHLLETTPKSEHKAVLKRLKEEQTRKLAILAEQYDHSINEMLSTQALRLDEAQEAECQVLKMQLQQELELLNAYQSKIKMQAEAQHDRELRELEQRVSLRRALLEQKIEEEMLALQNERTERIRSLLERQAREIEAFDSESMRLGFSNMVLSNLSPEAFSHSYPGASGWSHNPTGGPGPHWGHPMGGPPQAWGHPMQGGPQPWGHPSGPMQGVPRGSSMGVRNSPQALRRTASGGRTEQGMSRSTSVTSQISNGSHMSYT
# [2] = target: Phosphorylase b kinase gamma catalytic chain, skeletal muscle/heart isoform (Homo sapiens) (UniProt Q16816); test: Inhibition of human recombinant PHKg1 at 500 nM related to control ULK1
# Chain of Phosphorylase b kinase gamma catalytic chain, skeletal muscle/heart isoform (Homo sapiens) (Q16816 whole entry, looked up, canonical isoform): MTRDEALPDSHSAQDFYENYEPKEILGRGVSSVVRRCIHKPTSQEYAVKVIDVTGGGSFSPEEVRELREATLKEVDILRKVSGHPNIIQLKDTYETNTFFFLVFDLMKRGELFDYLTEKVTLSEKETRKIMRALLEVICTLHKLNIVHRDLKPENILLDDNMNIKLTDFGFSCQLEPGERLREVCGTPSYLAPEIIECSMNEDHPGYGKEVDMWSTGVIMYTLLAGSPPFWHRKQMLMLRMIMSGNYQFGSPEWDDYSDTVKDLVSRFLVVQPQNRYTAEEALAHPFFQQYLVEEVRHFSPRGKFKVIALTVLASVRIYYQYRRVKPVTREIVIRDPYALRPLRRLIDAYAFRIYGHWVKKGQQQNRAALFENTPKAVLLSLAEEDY
# [3] = target: Serine/threonine-protein kinase/endoribonuclease IRE1 (Homo sapiens) (UniProt O75460); test: Inhibition of human recombinant IRE1 at 500 nM related to control ULK1
# Chain of Serine/threonine-protein kinase/endoribonuclease IRE1 (Homo sapiens) (O75460 19-977 limits assumed): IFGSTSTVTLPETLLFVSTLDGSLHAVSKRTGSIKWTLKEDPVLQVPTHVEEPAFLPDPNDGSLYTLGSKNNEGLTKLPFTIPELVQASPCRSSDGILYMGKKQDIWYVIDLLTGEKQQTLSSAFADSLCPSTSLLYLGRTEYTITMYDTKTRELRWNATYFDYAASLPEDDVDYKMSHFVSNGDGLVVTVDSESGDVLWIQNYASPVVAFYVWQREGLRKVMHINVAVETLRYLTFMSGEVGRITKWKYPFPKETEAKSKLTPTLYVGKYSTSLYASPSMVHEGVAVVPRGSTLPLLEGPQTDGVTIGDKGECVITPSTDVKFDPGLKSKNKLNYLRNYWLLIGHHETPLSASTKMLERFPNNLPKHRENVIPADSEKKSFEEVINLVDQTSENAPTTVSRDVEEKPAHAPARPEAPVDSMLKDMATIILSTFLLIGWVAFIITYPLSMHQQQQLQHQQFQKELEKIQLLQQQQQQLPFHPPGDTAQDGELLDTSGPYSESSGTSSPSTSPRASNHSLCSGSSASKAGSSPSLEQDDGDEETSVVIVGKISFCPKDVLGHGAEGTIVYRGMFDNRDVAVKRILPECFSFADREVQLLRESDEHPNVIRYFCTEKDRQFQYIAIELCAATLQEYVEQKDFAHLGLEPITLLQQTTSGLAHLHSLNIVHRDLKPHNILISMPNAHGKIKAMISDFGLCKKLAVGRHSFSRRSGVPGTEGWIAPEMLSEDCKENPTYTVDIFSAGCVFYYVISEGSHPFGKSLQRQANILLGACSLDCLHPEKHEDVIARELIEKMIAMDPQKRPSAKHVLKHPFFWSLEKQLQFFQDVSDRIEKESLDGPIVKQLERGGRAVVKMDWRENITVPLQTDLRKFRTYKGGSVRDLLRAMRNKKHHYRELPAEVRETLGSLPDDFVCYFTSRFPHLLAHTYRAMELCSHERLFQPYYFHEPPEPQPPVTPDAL
# [4] = target: T2, cGMP-dependent protein kinase 2 (Homo sapiens) (UniProt Q13237); test: Inhibition of human recombinant PKG2 at 15 nM related to control ULK1
# T2 sequence (whole entry): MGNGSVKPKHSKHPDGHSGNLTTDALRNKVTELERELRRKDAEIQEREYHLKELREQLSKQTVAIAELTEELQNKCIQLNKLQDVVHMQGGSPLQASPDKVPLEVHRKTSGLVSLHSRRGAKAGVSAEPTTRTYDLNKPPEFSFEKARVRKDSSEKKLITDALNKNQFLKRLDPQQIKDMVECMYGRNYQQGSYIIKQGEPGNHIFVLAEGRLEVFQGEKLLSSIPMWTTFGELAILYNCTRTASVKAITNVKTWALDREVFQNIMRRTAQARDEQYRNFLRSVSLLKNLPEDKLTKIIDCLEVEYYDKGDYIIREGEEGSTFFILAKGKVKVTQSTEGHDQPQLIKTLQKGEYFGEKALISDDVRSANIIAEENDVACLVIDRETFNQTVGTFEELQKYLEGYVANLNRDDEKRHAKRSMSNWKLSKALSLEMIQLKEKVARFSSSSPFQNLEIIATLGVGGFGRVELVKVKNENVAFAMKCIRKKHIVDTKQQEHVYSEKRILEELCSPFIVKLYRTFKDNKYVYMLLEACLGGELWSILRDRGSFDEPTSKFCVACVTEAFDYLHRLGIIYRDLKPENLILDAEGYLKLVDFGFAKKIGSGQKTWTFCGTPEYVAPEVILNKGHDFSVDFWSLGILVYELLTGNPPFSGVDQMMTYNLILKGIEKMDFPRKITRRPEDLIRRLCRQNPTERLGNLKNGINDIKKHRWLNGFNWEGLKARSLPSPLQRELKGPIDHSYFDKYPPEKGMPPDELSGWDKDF
# [5] = target: Protein-tyrosine kinase 2-beta (Homo sapiens) (UniProt Q14289); test: Inhibition of human recombinant PYK2 at 40 nM related to control ULK1
# Chain of Protein-tyrosine kinase 2-beta (Homo sapiens) (Q14289 whole entry, looked up): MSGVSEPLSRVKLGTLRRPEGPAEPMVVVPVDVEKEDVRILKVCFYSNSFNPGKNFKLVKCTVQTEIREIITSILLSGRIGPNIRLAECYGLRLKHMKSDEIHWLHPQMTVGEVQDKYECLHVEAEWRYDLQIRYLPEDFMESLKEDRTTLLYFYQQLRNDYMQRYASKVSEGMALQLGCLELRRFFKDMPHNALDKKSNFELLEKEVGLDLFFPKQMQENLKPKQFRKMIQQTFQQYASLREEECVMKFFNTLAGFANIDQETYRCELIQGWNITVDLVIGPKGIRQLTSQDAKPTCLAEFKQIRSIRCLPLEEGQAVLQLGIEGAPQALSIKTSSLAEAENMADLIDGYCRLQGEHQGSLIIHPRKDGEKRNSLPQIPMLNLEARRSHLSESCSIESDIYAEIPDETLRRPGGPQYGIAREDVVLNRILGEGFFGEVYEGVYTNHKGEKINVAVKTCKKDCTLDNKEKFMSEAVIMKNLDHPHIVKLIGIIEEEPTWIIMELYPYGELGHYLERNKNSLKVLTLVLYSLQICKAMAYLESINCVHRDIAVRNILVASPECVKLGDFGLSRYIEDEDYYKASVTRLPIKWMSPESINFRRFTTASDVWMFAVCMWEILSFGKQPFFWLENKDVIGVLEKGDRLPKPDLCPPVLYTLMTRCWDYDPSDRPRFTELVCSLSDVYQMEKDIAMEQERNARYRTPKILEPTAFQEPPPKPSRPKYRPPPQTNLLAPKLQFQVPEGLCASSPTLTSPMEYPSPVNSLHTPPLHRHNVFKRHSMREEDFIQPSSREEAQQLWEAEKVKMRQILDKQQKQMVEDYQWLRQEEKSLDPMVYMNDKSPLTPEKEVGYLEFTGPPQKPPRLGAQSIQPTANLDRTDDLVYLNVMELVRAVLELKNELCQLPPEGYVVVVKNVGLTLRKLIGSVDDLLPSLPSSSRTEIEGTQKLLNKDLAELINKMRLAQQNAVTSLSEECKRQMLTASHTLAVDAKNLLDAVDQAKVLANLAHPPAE
# [6] = target: Fibroblast growth factor receptor 2 (Homo sapiens) (UniProt P21802); test: Inhibition of human recombinant FGFR2 at 40 nM in presence of ATP by radiometric assay relative to control
# Chain of Fibroblast growth factor receptor 2 (Homo sapiens) (P21802 22-821 limits assumed): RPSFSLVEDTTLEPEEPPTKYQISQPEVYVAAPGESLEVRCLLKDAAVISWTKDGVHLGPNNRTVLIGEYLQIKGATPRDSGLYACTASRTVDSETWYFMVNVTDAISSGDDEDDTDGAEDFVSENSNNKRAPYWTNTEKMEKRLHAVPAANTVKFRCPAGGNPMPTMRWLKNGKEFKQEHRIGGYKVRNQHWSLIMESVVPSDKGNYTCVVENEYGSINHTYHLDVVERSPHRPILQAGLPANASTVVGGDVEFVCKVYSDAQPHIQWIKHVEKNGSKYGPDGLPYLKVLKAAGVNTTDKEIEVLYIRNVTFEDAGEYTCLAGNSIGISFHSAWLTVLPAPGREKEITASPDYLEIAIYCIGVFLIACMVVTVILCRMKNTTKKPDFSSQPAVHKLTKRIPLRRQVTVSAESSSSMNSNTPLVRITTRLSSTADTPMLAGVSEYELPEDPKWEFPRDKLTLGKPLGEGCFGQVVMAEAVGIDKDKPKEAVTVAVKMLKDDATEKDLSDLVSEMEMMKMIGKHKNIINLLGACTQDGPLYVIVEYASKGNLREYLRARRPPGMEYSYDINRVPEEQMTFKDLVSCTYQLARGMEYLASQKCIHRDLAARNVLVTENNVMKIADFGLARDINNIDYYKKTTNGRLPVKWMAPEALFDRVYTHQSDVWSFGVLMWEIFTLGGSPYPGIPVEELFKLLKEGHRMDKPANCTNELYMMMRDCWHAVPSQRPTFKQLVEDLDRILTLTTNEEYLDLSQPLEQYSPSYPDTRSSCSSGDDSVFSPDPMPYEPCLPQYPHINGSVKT
# [7] = target: T3, Eukaryotic elongation factor 2 kinase (Homo sapiens) (UniProt O00418); test: Inhibition of human recombinant eEF2K at 40 nM related to control ULK1
# T3 sequence (whole entry): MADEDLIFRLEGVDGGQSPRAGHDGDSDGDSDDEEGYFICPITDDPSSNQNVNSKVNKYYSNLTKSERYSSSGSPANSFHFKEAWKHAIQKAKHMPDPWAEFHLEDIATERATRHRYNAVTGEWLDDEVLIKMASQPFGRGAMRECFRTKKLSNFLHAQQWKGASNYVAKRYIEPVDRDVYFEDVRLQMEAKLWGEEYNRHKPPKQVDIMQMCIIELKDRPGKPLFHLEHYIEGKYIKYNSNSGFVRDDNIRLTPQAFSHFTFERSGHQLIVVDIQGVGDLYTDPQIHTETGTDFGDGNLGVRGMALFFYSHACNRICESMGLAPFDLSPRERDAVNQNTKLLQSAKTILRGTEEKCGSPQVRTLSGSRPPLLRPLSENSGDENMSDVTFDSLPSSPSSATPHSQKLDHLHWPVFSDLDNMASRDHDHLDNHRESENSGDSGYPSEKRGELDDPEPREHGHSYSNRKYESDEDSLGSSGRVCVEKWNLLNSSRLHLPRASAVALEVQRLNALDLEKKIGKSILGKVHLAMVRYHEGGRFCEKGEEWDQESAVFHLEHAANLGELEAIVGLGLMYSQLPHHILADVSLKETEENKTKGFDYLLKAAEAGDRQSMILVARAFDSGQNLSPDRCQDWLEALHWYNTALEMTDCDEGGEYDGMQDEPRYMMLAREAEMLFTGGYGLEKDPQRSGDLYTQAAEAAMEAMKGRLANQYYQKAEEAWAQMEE
# [8] = target: Serine/threonine-protein kinase SIK3 (Homo sapiens) (UniProt Q9Y2K2); test: Inhibition of human recombinant QSK at 40 nM in presence of ATP by radiometric assay relative to control
# Chain of Serine/threonine-protein kinase SIK3 (Homo sapiens) (Q9Y2K2 whole entry, looked up): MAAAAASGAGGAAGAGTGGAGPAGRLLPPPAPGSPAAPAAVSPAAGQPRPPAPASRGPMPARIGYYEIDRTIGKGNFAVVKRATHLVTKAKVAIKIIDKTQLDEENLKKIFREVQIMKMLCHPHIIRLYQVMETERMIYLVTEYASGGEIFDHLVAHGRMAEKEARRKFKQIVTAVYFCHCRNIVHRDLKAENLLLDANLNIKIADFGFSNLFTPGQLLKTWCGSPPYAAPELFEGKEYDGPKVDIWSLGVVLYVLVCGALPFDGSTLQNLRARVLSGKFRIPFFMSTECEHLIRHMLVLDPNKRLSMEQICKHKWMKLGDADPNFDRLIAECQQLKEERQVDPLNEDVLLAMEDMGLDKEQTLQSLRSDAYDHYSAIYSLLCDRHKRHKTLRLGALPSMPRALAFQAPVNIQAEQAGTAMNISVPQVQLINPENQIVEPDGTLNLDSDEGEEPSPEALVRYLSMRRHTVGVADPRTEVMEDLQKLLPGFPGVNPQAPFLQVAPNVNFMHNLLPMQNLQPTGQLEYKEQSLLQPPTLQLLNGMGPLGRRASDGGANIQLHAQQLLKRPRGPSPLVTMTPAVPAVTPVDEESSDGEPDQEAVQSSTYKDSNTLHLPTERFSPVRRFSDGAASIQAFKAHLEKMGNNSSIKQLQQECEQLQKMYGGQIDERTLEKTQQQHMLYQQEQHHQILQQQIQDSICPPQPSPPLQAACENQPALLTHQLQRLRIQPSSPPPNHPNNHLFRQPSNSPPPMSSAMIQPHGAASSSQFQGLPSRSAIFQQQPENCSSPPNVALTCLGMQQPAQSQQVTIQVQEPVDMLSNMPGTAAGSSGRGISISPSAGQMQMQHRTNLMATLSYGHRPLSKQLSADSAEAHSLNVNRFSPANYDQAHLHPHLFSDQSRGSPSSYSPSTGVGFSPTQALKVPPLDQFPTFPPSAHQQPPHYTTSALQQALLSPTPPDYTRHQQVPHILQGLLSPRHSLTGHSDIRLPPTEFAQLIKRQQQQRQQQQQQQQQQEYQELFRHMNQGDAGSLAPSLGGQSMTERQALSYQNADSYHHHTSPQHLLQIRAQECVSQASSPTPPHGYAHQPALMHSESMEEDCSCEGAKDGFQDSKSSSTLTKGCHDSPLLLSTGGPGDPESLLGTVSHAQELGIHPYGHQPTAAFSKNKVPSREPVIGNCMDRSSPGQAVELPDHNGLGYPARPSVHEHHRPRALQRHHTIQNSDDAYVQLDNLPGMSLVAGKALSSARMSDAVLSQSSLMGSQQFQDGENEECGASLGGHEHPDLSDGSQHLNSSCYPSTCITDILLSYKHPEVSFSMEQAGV
compound,measurement,setting,value
CNC(=O)c1ccccc1Oc1nc(Nc2cc(OC)c(OC)c(OC)c2)ncc1Br,fold change (FC),[1],0.08
same,fold change (FC),[2],0.31
same,fold change (FC),[3],0
CC(C)[C@H](NC(=O)c1cc(-c2cnn3cc(-c4ccc(OCCN5CCCCC5)cc4)cnc23)cs1)C(F)(F)F,fold change (FC),[4],0.05
O=C(N[C@@H](C1CC1)C(F)(F)F)c1cc(-c2cnn3cc(-c4ccc(F)cc4)cnc23)cs1,fold change (FC),[5],0.04
same,inhibition,[6],0%
same,fold change (FC),[7],0.1
same,inhibition,[8],59%
